In one assay the test system is Candida albicans KF1. The assay can be described thus: Paper disk antimicrobial activity. The note with it: 1 mg/ml 10 μl on 6 mm paper disk, 24 hours. It counts as cell-based. More on the design: unit not given here.
For assay [1], the system named is Mucor racemosus KF223 (IFO 4581). The assay can be described thus: Paper disk antimicrobial activity. It counts as cell-based. More on the design: unit not given here. Conditions: 1 mg/ml 10 μl on 6 mm paper disk, 24 hours.

Turning to `CCC(C)/C=C/C=C(\C)CC(C)/C=C/C=C/C1OC(=O)C(O)C2OC12C` (centres unmarked) [FT-0554 substance], the inhibition zone diameter was 12 with Candida albicans KF1 and 10 in assay [1].

For the origin of these results see US6486197B1, “Substance ft-0554 and process for producing the same” (The Kitasato Institute, priority 1997, dated 2002).
